Laboratory results: ChEMBL document CHEMBL4616715, “Discovery of Diphenylacetamides as CXCR7 Inhibitors with Novel β-Arrestin Antagonist Activity” (ACS Med Chem Lett, 2020)

How the values were obtained:
[1] = molecular target: T1, Atypical chemokine receptor 3 (Homo sapiens, UniProt P25106); assay: Agonist activity at human CXCR7 receptor expressed in CHOK1 cell membranes assessed as increase in beta-arrestin recruitment incubated for 30 mins; type: cell-based, CHO-K1
[2] = molecular target: T1, Atypical chemokine receptor 3; assay: Displacement of [125I]-CXCL12 from human CXCR7 receptor expressed in CHOK1 cell membranes incubated for 2 hrs by radiolabeled ligand binding assay; design: species or system CHO-K1
[3] = molecular target: C-X-C chemokine receptor type 4 (Homo sapiens, UniProt P61073); assay: Displacement of [125I]-CXCL12 from human CXCR4 receptor expressed in Jurkat cells incubated for 2 hrs by radiolabeled ligand binding assay; type: cell-based
C-X-C chemokine receptor type 4, sequence (P61073 whole entry): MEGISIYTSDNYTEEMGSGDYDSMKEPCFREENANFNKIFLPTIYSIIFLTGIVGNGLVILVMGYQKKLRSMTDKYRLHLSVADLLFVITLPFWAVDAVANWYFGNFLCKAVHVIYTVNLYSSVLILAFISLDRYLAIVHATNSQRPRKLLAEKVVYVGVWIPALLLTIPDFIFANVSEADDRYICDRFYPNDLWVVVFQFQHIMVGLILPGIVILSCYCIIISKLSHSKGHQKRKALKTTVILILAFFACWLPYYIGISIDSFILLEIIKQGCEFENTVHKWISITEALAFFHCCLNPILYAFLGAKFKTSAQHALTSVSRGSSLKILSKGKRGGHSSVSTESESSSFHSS

T1 sequence (P25106 whole entry): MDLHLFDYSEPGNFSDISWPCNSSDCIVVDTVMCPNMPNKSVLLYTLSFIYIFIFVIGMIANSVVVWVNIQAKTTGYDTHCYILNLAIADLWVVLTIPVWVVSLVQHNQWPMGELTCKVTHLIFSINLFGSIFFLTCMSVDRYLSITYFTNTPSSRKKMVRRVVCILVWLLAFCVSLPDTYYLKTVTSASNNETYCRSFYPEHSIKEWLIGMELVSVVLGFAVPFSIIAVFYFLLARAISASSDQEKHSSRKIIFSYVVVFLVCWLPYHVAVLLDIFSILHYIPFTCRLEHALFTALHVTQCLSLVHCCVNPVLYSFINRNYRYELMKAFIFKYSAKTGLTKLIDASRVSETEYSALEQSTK

Row | Compound | EC50 [1] | Ki ([2]; read-out: Ki) | IC50 [3] | Ki ([2]; read-out: pKi (converted))
1 | Cc1noc(-c2ccc(OCCN3CC[C@@H](C(C(N)=O)(c4ccccc4)c4ccccc4)C3)cc2)n1 | > 10 µM | 11.8 µM |  | 
2 | NC(=O)C(c1ccccc1)(c1ccccc1)[C@@H]1CCN(CCOc2ccc(-c3nccs3)cc2)C1 |  |  | > 15 µM | 
3 | NC(=O)C(c1ccccc1)(c1ccccc1)[C@@H]1CCN(CCOc2ccc(C3=NCCO3)cc2)C1 | > 10 µM | 6.54 µM |  | 
4 | NC(=O)C(c1ccccc1)(c1ccccc1)[C@@H]1CCN(CCOc2ccc(-c3nnco3)cc2)C1 | > 10 µM | 4.09 µM |  | 4.17 µM
